From US8350048B2, “Amide compounds as boosters of antivirals” (Janssen R&D Ireland, priority 2007, dated 2013)
Like-named read-outs stand apart in the source and are kept apart here.

Key:
[1] = Toxicity, mock-infected MT4 CMV-EGFP cells; assay type: cell-based, human; conditions: human
Text: (§1) Assay 1 &2: Antiviral Activity/Toxicity
(§2) Analogously, MT4 cells are engineered with GFP and the constitutional cytomegalovirus (CMV) promotor. […] Cytotoxic investigational compounds reduce GFP levels of mock-infected MT4 CMV-EGFP cells.
(§3) The ratio of CC50 to EC50 is defined as the selectivity index (SI) and is an indication of the selectivity of the anti-HIV activity of the inhibitor. The ultimate monitoring of HIV-1 infection and cytotoxicity is done using a scanning microscope. Image analysis allows very sensitive detection of viral infection. Measurements are done before cell necrosis, which usually takes place about five days after infection, in particular measurements are performed three days after infection.
(§4) A pEC50 value corresponds to −log10(EC50). A pCC50 value corresponds to −log10(CC50).

[2] = test system: wild-type HIV-1IIIB strain; assay: Antiviral activity, MT4 LTR-EGFP cellular assay; assay type: cell-based; design: key to Antiviral activity IIIB (pEC50): pEC50 = -log10(EC50); conditions: for EC50: read-out: Antiviral activity IIIB (pEC50) (converted)
Experimental: as §1
The compounds of the present invention were tested for antiviral activity in a cellular assay, which was performed according to the following procedure.
The human T-cell line MT4 is engineered with Green Fluorescent Protein (GFP) and an HIV-specific promoter, HIV-1 long terminal repeat (LTR). This cell line is designated MT4 LTR-EGFP, and can be used for the in vitro evaluation of anti-HIV activity of investigational compounds. In HIV-1 infected cells, the Tat protein is produced which upregulates the LTR promotor and finally leads to stimulation of the GFP reporter production, allowing measuring ongoing HIV-infection fluorometrically.
as §3, §4

[3] = test system: MT4 CMV-EGFP cells; assay: Toxicity, mock-infected MT4 CMV-EGFP cells; assay type: cell-based, human
Text: as §1, §2, §3, §4

[4] = Metabolic stability of test compounds (HLM15'); assay type: in vitro ADME, human; conditions: for recovery at 15 min, 5 μM: read-out: Metabolic stability (HLM, % recovery after 15')
Text: Human liver tissue is rinsed in ice-cold 0.1 M Tris-HCl (pH 7.4) buffer to wash excess blood. Tissue is then blotted dry, weighed and chopped coarsely using surgical scissors. The tissue pieces are homogenized in 3 volumes of ice-cold 0.1 M phosphate buffer (pH 7.4) using either a Potter-S (Braun, Italy) equipped with a Teflon pestle or a Sorvall Omni-Mix homogenizer, for 7×10 sec. In both cases, the vessel is kept in/on ice during the homogenization process. Tissue homogenates are centrifuged at 9000×g for 20 min at 4° C. using a Sorvall centrifuge or Beckman Ultracentrifuge. The resulting supernatant can be stored at −80° C. and is designated ‘S9’. The S9 fraction is centrifuged at 100,000×g for 60 min at 4° C. using a Beckman ultracentrifuge. The resulting supernatant is carefully aspirated, aliquoted and designated ‘cytosol’. The pellet is re-suspended in 0.1 M phosphate buffer (pH 7.4) in a final volume of 1 ml per 0.5 g original tissue weight and designated ‘microsomes’. All sub-cellular fractions are aliquoted, immediately frozen in liquid nitrogen and stored at −80° C. until use.
Heat-inactivated (10 min at 95° C.) ‘S9’ or microsomes were used for blank experiments. […] The reaction was incubated for 0 or 15 min. Next, the reaction was stopped by addition of 2 volumes of DMSO (or acetonitrile). Samples were centrifuged (10 min, 900×g) and analyzed by LC-MS.

[5] = molecular target: CYP2C9 (Homo sapiens, UniProt P11712); assay: in vitro
Text: Assay 4: CYP450 Inhibition

[6] = molecular target: CYP2D6 (Homo sapiens, UniProt P10635); assay: in vitro; conditions: pH 7.4
Experimental: (§5) Inhibition of the metabolism of test compounds by different CYP P450 isoenzymes was determined using E. coli expressed proteins (3A4, 2C9, 2D6, 1A2, and 2C19) that convert their specific substrates into a fluorescent molecule (Table 6). This fluorescent molecule was measured using a fluorescent plate reader (Victor2 (Wallac) or Fluoroskan (Labsystems)). […] CYP P450 enzymes were prepared in house or commercially bought and stored at −80° C.
(§6) The assay was performed in black 96 well Costar plates. Test compounds were added to a CYP P450 enzyme solution in the presence of an NADPH generating system. After 5 min of preincubation at 37° C., the freshly prepared, phosphate buffered (pH 7.4) substrate solution was added. Known CYP P450 inhibitors were used as positive controls, negative controls were run without CYP P450 enzyme. […] Reaction mixtures were incubated at 37° C. for 30 min (CYP3A4-BFC), 30 min (CYP3A4-BQ), 10 min (CYP3A4-DBF), 15 min (CYP1A2-CEC), 30 min (CYP2C9-MFC, CYP2C19-CEC), or 45 min (CYP2D6-AMMC), respectively. Then, the reaction was stopped by the addition of 200 μl acetonitrile, and the fluorescent signal was detected.
(§7) Calculation of CYP P450 isoenzyme inhibition (% inh.):
(§8) % activity=(100/(average positive control−average negative control))×(average sample−average negative control)

[7] = molecular target: CYP2C19 (Homo sapiens, UniProt P33261); assay: in vitro; conditions: E. coli expressed CYP2C19, pH 7.4, probe CEC 25 μM
Experimental: as §5, §6, §7, §8

[8] = mock-infected MT4 CMV-EGFP cells, read-out: Toxicity MT4 (pCC50) (converted)
[9] = Human immunodeficiency virus 1, 72 h, wild-type HIV-1 IIIB, MT4 LTR-EGFP cells, three days after infection
[10] = human liver microsomes 1 mg/ml, 5 μM test compound, 15 min
[11] = wild-type HIV-1 IIIB, MT4 LTR-EGFP cells, three days after infection
[12] = Human immunodeficiency virus 1, IIIB, 72 h
[13] = pH 7.4, human liver microsomes 1 mg/ml, 5 μM test compound, 15 min

CYP2C9, sequence (P11712 whole entry): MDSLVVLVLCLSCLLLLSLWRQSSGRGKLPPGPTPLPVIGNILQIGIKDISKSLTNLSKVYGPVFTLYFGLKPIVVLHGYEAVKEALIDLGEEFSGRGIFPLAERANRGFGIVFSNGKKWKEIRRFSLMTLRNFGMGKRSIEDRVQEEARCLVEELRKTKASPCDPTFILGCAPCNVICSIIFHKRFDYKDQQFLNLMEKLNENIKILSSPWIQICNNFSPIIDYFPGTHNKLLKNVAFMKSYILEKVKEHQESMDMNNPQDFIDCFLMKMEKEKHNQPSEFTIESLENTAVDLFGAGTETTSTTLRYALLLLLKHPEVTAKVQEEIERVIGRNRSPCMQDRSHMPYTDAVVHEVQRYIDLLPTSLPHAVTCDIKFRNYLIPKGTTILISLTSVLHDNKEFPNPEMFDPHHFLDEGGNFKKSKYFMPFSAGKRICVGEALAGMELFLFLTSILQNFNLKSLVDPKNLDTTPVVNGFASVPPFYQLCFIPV
CYP2C19, sequence (P33261 whole entry): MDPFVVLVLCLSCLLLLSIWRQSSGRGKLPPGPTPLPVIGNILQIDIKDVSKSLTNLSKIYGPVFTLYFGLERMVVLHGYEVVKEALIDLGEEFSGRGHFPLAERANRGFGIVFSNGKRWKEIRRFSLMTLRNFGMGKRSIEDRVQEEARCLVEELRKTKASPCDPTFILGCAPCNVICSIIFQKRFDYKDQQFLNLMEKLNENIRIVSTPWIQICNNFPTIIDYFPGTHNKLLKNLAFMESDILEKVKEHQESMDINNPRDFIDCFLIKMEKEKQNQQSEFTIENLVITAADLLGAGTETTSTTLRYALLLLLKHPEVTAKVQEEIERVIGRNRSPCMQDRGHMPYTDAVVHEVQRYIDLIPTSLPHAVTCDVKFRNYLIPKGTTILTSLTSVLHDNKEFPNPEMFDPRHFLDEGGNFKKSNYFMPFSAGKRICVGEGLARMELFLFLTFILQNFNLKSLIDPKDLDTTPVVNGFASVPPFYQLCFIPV
CYP2D6, sequence (P10635 whole entry): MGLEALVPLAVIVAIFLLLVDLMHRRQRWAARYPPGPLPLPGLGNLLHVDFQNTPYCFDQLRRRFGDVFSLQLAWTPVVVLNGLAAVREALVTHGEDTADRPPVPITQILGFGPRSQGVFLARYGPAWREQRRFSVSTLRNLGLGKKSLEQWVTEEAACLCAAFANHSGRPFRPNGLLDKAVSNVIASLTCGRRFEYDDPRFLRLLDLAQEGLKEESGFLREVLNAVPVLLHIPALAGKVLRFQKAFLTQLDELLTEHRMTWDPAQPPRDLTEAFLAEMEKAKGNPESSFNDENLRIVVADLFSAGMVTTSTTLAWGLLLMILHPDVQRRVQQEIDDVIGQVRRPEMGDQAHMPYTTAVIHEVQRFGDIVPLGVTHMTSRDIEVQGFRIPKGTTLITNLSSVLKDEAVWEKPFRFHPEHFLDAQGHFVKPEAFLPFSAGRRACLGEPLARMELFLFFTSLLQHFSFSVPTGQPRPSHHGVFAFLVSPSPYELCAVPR

Metabolic stability (HLM, % recovery after 15') [4, 10] [%] | Cyp450 inhibition: CDNA-CYP2C9-MFC (% inhibition) [5] [%] | Antiviral activity IIIB (pEC50) [2, 11] | Compound | Toxicity MT4 (pCC50) [3] | also measured
67 | 97 | =4.32 | CCN(C)c1nc2ccc(C(=O)N(C[C@@H](O)[C@H](Cc3ccccc3)NC(=O)OCc3cncs3)CC(C)(C)C)cc2o1 [Compound C43] | =4.34 | 
59 | 28 | =4.22 | CC(C)CN(C[C@@H](O)[C@H](Cc1ccccc1)NC(=O)OCc1cncs1)C(=O)c1ccc2nc(NCCCN(C)C)oc2c1 [Compound C23] | <4.00 | 
57 | 29 | <4.00 | CCN(C)c1nc2ccc(C(=O)N(CCN(C)C)C[C@@H](O)[C@H](Cc3ccccc3)NC(=O)OCc3cncs3)cc2o1 [Compound C11] | <4.00 | 
65 | 91 | =4.32 | CCN(C)c1nc2ccc(C(=O)N(CC(C)C)C[C@@H](O)[C@H](Cc3ccccc3)NC(=O)OCc3cccnc3)cc2o1 [Compound C9] | =4.24 | 

Second part, the molecule before the results:

Compound | Metabolic stability (HLM, % recovery after 15') [4, 10] [%] | Cyp450 inhibition: CDNA-CYP2C9-MFC (% inhibition) [5] [%] | Antiviral activity IIIB (pEC50) [2, 11] | Toxicity MT4 (pCC50) [3] | also measured
CC(C)CN(C[C@@H](O)[C@H](Cc1cccnc1)NC(=O)OCc1cncs1)C(=O)c1ccc2ncsc2c1 [Compound C55, Thiazol-5-ylmethyl (2S,3R)-3-hydroxy-4-(N-isobutylbenzo[d]thiazole-6-carboxamido)-1-(pyridin-3-yl)butan-2-ylcarbamate] |  |  |  |  | CC50 at 3 days [1, 8]: > 100 µM; EC50 [2, 9]: > 100 µM
CCN(C)c1nc2ccc(C(=O)N(CCN3CCCC3)C[C@@H](O)[C@H](Cc3ccccc3)NC(=O)OCc3cncs3)cc2o1 [Compound C12] | 69 | 34 | <4.00 | <4.00 | 
CC(C)CN(C[C@@H](O)[C@H](Cc1ccccc1)NC(=O)OCc1cncs1)C(=O)c1ccc2nc(N)oc2c1 [Compound C22] |  |  |  | <4.00 | Metabolic stability (HLM, % recovery after 15') [4]: 72%; Antiviral activity IIIB (pEC50) [2]: <4.00
CC(C)CN(C[C@@H](O)[C@H](Cc1ccccc1)NC(=O)OCc1cncs1)C(=O)c1ccc2nc(N3CCOCC3)oc2c1 [Compound C5] | 67 | 95 | <4.00 | =4.06 | 
C#CCN(C)c1nc2ccc(C(=O)N(CC(C)C)C[C@@H](O)[C@H](Cc3ccccc3)NC(=O)OCc3cncs3)cc2o1 [Compound C50] | 72 |  | =4.32 |  | Toxicity MT4 (pCC50) ([3]; mock-infected MT4 CMV-EGFP cells): =4.32
CCN(C[C@@H](O)[C@H](Cc1ccccc1)NC(=O)OCc1cncs1)C(=O)c1ccc2nc(N3CCCC3)oc2c1 [Compound C30, Thiazol-5-ylmethyl (2S,3R)-4-(N-ethyl-2-(pyrrolidin-1-yl)benzo[d]oxazole-6-carboxamido)-3-hydroxy-1-phenylbutan-2-ylcarbamate] |  |  |  |  | CC50 [1]: 72.4 µM; recovery ([4]; human, pH 7.4): 80%; EC50 [2, 12]: 69.2 µM
CCN(C)c1nc2ccc(C(=O)N(CC(C)C)C[C@@H](O)[C@H](Cc3ccccc3)NC(=O)OCc3ccc4c(c3)OCO4)cc2o1 [Compound C36] | 62 | 84 | =4.79 | =4.57 | 
CCN(C)c1nc2ccc(C(=O)N(CC(C)C)C[C@H](O)[C@H](Cc3ccccc3)NC(=O)OCc3cncs3)cc2o1 [Compound C52, Thiazol-5-ylmethyl (2S,3S)-4-(2-(ethyl(methyl)amino)-N-isobutylbenzo[d]-oxazole-6-carboxamido)-3-hydroxy-1-phenylbutan-2-ylcarbamate] |  |  |  |  | CC50 [1]: 44.7 µM; recovery at 15 min, 5 μM [4, 13]: 63%; EC50 [2, 9]: 44.7 µM
CC(C)CN(C[C@@H](O)[C@H](Cc1ccccc1)NC(=O)OCc1cncs1)C(=O)c1ccc2nc(C(C)C)oc2c1 [Compound C45, Thiazol-5-ylmethyl (2S,3R)-3-hydroxy-4-(N-isobutyl-2-isopropylbenzo[d]-oxazole-6-carboxamido)-1-phenylbutan-2-ylcarbamate] |  |  |  |  | inhibition at 45 min, 10 μM [6]: 44%; CC50 at 3 days [1, 8]: 42.7 µM; recovery at 15 min, 5 μM [4, 13]: 68%; inhibition at 30 min, 10 μM [7]: 89%; EC50 [2, 9]: 44.7 µM
CCN(C)c1nc2ccc(C(=O)N(CC(C)C)C[C@@H](O)[C@H](Cc3cccnc3)NC(=O)OCc3cncs3)cc2o1 [Compound C54, Thiazol-5-ylmethyl (2S,3R)-4-(2-(ethyl(methyl)amino)-N-isobutylbenzo[d]-oxazole-6-carboxamido)-3-hydroxy-1-(pyridin-3-yl)butan-2-ylcarbamate] |  |  |  |  | CC50 at 3 days [1, 8]: > 100 µM; EC50 [2, 9]: > 100 µM
CCN(C)c1nc2ccc(C(=O)N(CC(C)C)C[C@@H](O)[C@H](Cc3ccccc3)NC(=O)OCc3cncs3)cc2o1 [Compound C1, Thiazol-5-ylmethyl (2S,3R)-4-(2-(ethyl(methyl)amino)-N-isobutylbenzo[d]-oxazole-6-carboxamido)-3-hydroxy-1-phenylbutan-2-ylcarbamate] |  |  |  |  | CC50 at 3 days [1]: > 81.3 µM; recovery at 15 min, 5 μM [4, 13]: 71%; EC50 [2, 9]: 70.8 µM
CCN(C)c1nc2ccc(C(=O)N(CCN3CCOCC3)C[C@@H](O)[C@H](Cc3ccccc3)NC(=O)OCc3cncs3)cc2o1 [Compound C18] | 64 | 53 | <4.00 | <4.00 | 
CC(C)CN(C[C@@H](O)[C@H](Cc1ccccc1)NC(=O)OCc1cncs1)C(=O)c1ccc2ncn(C(C)C)c2c1 [Compound C14] | 60 | 93 | <4.00 | <4.00 | 
CC(C)CN(C[C@@H](O)[C@H](Cc1ccccc1)NC(=O)OCc1cncs1)C(=O)c1ccc2nc(N(C)CCN(C)C)oc2c1 [Compound C24] |  |  |  | <4.00 | Metabolic stability (HLM, % recovery after 15') [4]: 57%; Antiviral activity IIIB (pEC50) [2]: =4.20
O=C(N[C@@H](Cc1ccccc1)[C@H](O)CN(CC1CCCCC1)C(=O)c1ccc2nc(N3CCCC3)oc2c1)OCc1cncs1 [Compound C31, Thiazol-5-ylmethyl (2S,3R)-4-(N-(cyclohexylmethyl)-2-(pyrrolidin-1-yl)-benzo[d]oxazole-6-carboxamido)-3-hydroxy-1-phenylbutan-2-ylcarbamate] |  |  |  |  | inhibition at 45 min, 10 μM [6]: 78%; CC50 at 3 days [1, 8]: 21.9 µM; recovery at 15 min, 5 μM [4, 13]: 59%; inhibition at 30 min, 10 μM [7]: 104%; EC50 [2, 12]: 27.5 µM
CC(C)CN(C[C@@H](O)[C@H](Cc1ccccc1)NC(=O)OCc1cncs1)C(=O)c1ccc2nc(NCCCn3ccnc3)oc2c1 [Compound C46] | 92 | 90 | =4.06 | <4.00 | 
CC(C)CN(C[C@H](O)[C@H](Cc1ccccc1)NC(=O)OCc1cncs1)C(=O)c1ccc2nc(N3CCCC3)oc2c1 [Compound C51, Thiazol-5-ylmethyl (2S,3S)-3-hydroxy-4-(N-isobutyl-2-(pyrrolidin-1-yl)-benzo[d]oxazole-6-carboxamido)-1-phenylbutan-2-ylcarbamate] |  |  |  |  | inhibition at 45 min, 10 μM [6]: 82%; CC50 at 3 days [1, 8]: 40.7 µM; recovery at 15 min, 5 μM [4, 13]: 66%; inhibition at 30 min, 10 μM [7]: 94%; EC50 [2, 9]: 44.7 µM
